Test results published in US11084826B2, “RSV antiviral pyrazolo- and triazolo-pyrimidine compounds” (Janssen Sciences Ireland Unlimited Company, priority 2015, dated 2021).
Values joined by “and” are separate entries in the source; they are usually repeats but may differ in a detail not shown here. Equal entries are not always repeated. Where two headings read alike, the source gives them in different places.

What was measured:
rgRSV224 virus = assay: Antiviral activity: inhibition of rgRSV224 (GFP-expressing RSV) replication in HeLa cells, GFP expression read-out; format: cell-based, respiratory syncytial virus (RSV); details: for RSV HELA pEC50: rgRSV224 virus (MOI=1) in HeLa cells, GFP read-out
In short: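 HeLa cells (3,000/well) were infected with GFP-expressing rgRSV224 (MOI=1) in the presence of 9 serial 4-fold compound dilutions (0.05% DMSO) and incubated at 37° C, 5% CO2. After three days, GFP expression was measured by laser microscopy. EC50 is the concentration giving 50% inhibition of GFP expression.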

[1] = Cytotoxicity in HeLa cells, ATP content measured with the ATPlite kit; format: cell-based; details: human, TOX HELA pCC50
HeLa cells = assay: as above; format: cell-based

| SMILES | RSV HELA pEC50 (rgRSV224 virus) | TOX HELA pCC50 (HeLa cells) | other results |
| --- | --- | --- | --- |
| C[C@@H]1CCCCCN1C(=O)c1cc(C2CCC2)n2nc(-c3ccc(/C=C/C(=O)O)cc3F)cc2n1 [Compound M19] | 7.72 | – | EC50 (rgRSV224 virus; human respiratory syncytial virus, HeLa, read-out: RSV HELA pEC50, rgRSV224 virus (MOI=1) in HeLa cells, GFP read-out (converted)): 0.0302 µM; CC50 at 3 days [1]: 38.9 µM; TOX HELA pCC50 (HeLa cells; human, 3 days): 4.49 |
| CCc1cc(C(=O)N2CCCCCC2C)nc2cc(-c3ccc4[nH]c(=O)ccc4c3)nn12 (centres unmarked) [Compound A15] | 6.47 | <4.60 | – |
| CCc1cc(C(=O)N2CCCCC[C@H]2C)nc2cc(-c3ccc4c(c3F)OC[C@H](C(=O)O)C4)nn12 [Compound F64] | 7.12 | <4 | – |
| CCc1cc(C(=O)N2CCCCCN2C)nc2cc(-c3cccc(/C=C/C(=O)O)c3F)nn12 [Compound M40] | 6.37 | <4 | – |
| CC(C)Cc1cc(C(=O)N2CCCCC[C@H]2C)nc2cc(-c3ccc(N4CC[C@H](C(=O)O)C4)cc3F)nn12 [Compound W14] | 7.53 | 4.29 | – |
| C[C@@H]1CCCCCN1C(=O)c1cc(N(C)C)n2nc(-c3ccc(/C=C/C(=O)O)cc3F)cc2n1 [Compound M4] | 6.80 | <4.60 | – |
| CCc1cc(C(=O)N2CCCCCC2C)nc2cc(-c3ccc(NC(=O)OCC4CCCN4)cc3F)nn12 (centres unmarked) [Compound C3] | 6.78 and 6.55 | – | TOX HELA pCC50 (HeLa cells; HeLa cells, cytotoxicity): <4.60 and 4.89 |
| CC1CCCCCN1C(=O)c1cc(N2CCCC2)n2nc(-c3ccc(N(C)C)cc3)cc2n1 (centres unmarked) [Compound A19] | 5.34 | 4.42 | – |
| CCCC(C)N(CC)C(=O)c1cc(CC)n2nc(-c3ccccc3F)cc2n1 (centres unmarked) [Compound A16] | 5.57 | 4.45 | – |
| CCc1cc(C(=O)N2CCCC3(CC=CC3)C2C)nc2cc(-c3cccc(/C=C/C(=O)O)c3F)nn12 (centres unmarked) [Compound M39] | 6.19 | <4 | – |
| CCc1cc(C(=O)N2CCCCC[C@H]2C)nc2cc(-c3ccc(-n4cc(C(=O)O)cn4)cc3F)nn12 [Compound W2] | – | – | CC50 at 3 days [1]: > 25.1 µM; TOX HELA pCC50 (HeLa cells; human, 3 days): 4.31 |
| CCc1cc(C(=O)N2CCc3ccccc3C2C)nc2cc(-c3ccc(/C=C/C(=O)O)cc3Cl)nn12 (centres unmarked) [Compound M6] | 6.84 | <4.60 | – |
| CCc1cc(C(=O)N2CCCCC[C@H]2C)nc2cc(-c3ccc(C4=CCCC(C(=O)O)C4)cc3F)nn12 (some centres unmarked) [Compound F52] | 6.81 | 4.22 | – |
| CCc1cc(C(=O)N2CCc3ccccc3[C@H]2C)nc2cc(-c3ccc4cc(C(=O)O)ccc4c3F)nn12 [Compound F34] | 7.46 | 4.17 | – |
| CCc1cc(C(=O)N2CCc3sccc3[C@H]2C)nc2cc(-c3ccc(-c4ccc(C(=O)O)cn4)cc3F)nn12 [Compound F63] | 7.34 | 4.35 | – |
| CCc1cc(C(=O)N2CCc3ccccc3[C@H]2C)nc2cc(-c3ccc4c(c3F)OCC(C(=O)O)=C4)nn12 [Compound F54] | 8.59 | 4.75 | – |
| C[C@@H]1CCCCCN1C(=O)c1cc(C2CC2)n2nc(-c3ccc(-c4ccc(C(=O)O)cn4)cc3F)cc2n1 [Compound F21] | 7.28 | 4.37 | – |
| CCCC(C)N(C)C(=O)c1cc(CC)n2nc(-c3cccc(/C=C/C(=O)O)c3F)cc2n1 (centres unmarked) [Compound M38] | 6.65 | <4 | – |
| C[C@@H]1c2ccccc2CCN1C(=O)c1cc(C2(C)CC2)n2nc(-c3cccc(/C=C/C(=O)O)c3F)cc2n1 [Compound M36] | 7.99 | 4.26 | – |
| CCc1cc(C(=O)N2CCCCCC2C)nc2cc(-c3ccccc3Cl)nn12 (centres unmarked) [Compound A3] | 5.45 | 4.40 | – |
| C[C@@H]1CCCCCN1C(=O)c1cc(C2(C)COC2)n2nc(-c3ccc(C4C[C@H]4C(=O)O)cc3F)cc2n1 (some centres unmarked) [Compound O17] | 7.29 | 4.11 | – |
